15 molecules from patent US10463651B2, “3-(1H-pyrrolo[3,2-C]pyridin-2-YL)-1H-indazoles and therapeutic uses thereof” (Samumed, LLC, priority 2015, dated 2019) can be followed below.

Common to all, as to format: cell-based
The test system of experiment [1] is SW480 colon cancer cells. In words: Cell viability assay (CellTiter-Blue). The note with it: Homo sapiens; for EC50: 96 h, SW480 cell viability, four days, CellTiter-Blue; for inhibition at 10 µM: SW480, 96 h, read-out: percent inhibition at 10 μM. As for the experimental part:
Representative compounds were screened using the following assay procedure to assess the effect on cell viability as described below.
Approximately 2×10^3 SW480 colon cancer cells were seeded into each well and allowed to incubate in the presence or absence of compound for four days at 37° C./5% CO2. Eight replicates of DMSO-treated cells served as controls and cells treated with compound were performed in duplicate.
After incubation, 20 μL of CellTiter-Blue (Promega) was added to each well allowed to incubate for approximately 3 hours. This reagent was a buffered solution which contains resazurin, metabolically active cells were able to reduce rezarurin (blue) into resorufin (pink) which was highly fluorescent. This measured fluorescence was used as a readout for cell viability.

For experiment [2], the system named is Wnt activity (Sp5-Luc reporter, SW480 colon carcinoma cells). In words: Screening assay for Wnt activity (Sp5-Luc reporter gene assay in SW480 cells). The note with it: Homo sapiens; for inhibition at 10 µM: SW480, read-out: percent inhibition at 10 μM; for EC50: Sp5-Luc reporter, SW480 cells, incubated overnight. An excerpt: The screening assay for Wnt activity is described as follows. Reporter cell lines can be generated by stably transducing cancer cell lines (e.g., colon cancer) or primary cells (e.g., IEC-6 intestinal cells) with a lentiviral construct that includes a Wnt-responsive promoter driving expression of the firefly luciferase gene.
SW480 colon carcinoma cells were transduced with a lentiviral vector expressing luciferase with a human Sp5 promoter consisting of a sequence of eight TCF/LEF binding sites. SW480 cells stably expressing the Sp5-Luc reporter gene and a hygromycin resistance gene were selected by treatment with 150 μg/mL of hygromycin for 7 days. These stably transduced SW480 cells were expanded in cell culture and used for all further screening activities. […] For Sp5-Luc reporter gene assays, the cells were plated at 4,000 cells/well in 384-well plates with medium containing 1% fetal bovine serum and incubated overnight at 37° C. and 5% CO2. Following incubation, 20 μl of BrightGlo luminescence reagent (Promega) was added to each well of the 384-well assay plates. The plates were placed on an orbital shaker for 2 min and then luminescence was quantified using the Envision (Perkin Elmer) plate reader. Readings were normalized to DMSO only treated cells, and normalized activities were utilized for EC50 calculations using the dose-response log (inhibitor) vs. response-variable slope (four parameters) nonlinear regression feature available in GraphPad Prism 5.0 (or Dotmatics).

Experiment [3] relates to IL-6 (THP-1 cells). In words: IL-6 inhibition in LPS-stimulated THP-1 cells (HTRF). The note with it: Homo sapiens; for EC50: IL6 by HTRF, THP-1 cells, 500 ng/mL LPS, 22 hours; for inhibition at 10 µM: THP-1, read-out: percent inhibition at 10 M. As for the experimental part: THP-1 cells were cultured in basal media with 1% FBS for 24 hours before the start of the assay. […] THP-1 cells were plated at 5000 cells/well in the 384-well plates and incubated at 37° C. for 2 h. 500 ng/mL of LPS was added after 2 hours and cells were incubated for another 22 hours at 37° C. Plates were spun in a centrifuge for 1 minute at […] and a mixture of anti-IL6 XL665, and anti-IL6 Cryptate diluted in reconstitution buffer (Cisbio Inc.) was added to each well. Following incubation for 3 hrs at room temperature, Homogeneous Time-Resolved Fluorescence (HTRF) was measured using the Envision (Perkin Elmer) at 665 nm and […]. The ratio of fluorescence at 665 nm to 620 nm was used as a readout for IL6 quantification. All samples were processed in duplicate. Readings were normalized to DMSO treated cells and normalized activities were utilized for EC50 calculations using the dose-response log (inhibitor) vs. response-variable slope (four parameters) nonlinear regression feature available in GraphPad Prism 5.0 (or Dotmatics).

The subject of experiment [4] is primary human fibroblasts derived from IPF patients (LL29 cells) treated with TGF-β1. In words: Inhibition of the fibrotic process (αSMA staining) in TGF-β1-treated fibroblasts. The note with it: Fibroblast, 96 h; for EC50: % αSMA-positive LL29 cells, TGF-β1 20 ng/mL, 4 days. On the procedure:
Representative compounds were screened using primary human fibroblasts (derived from IPF patients) treated with TGF-β1 to determine their ability to inhibit the fibrotic process.
LL29 cells are plated at 1,500 cells/well in 80 μL/well F12 medium supplemented with 1% Fetal Bovine Serum. […] Wells treated with TGF-P1 and containing DMSO were used as controls. […] Following incubation for 4 days, SYTOX green nucleic acid stain (Life Technologies [Thermo Fisher Scientific]) was added to the wells at a final concentration of 1 μM and incubated at room temperature for 30 min.

Regarding `CN1CCN(c2nccc3[nH]c(-c4n[nH]c5ccc(-c6cncc(NC(=O)C7CCCC7)c6)cc45)cc23)CC1` [Compound 246, N-(5-(3-(4-(4-Methylpiperazin-1-yl)-1H-pyrrolo[3,2-c]pyridin-2-yl)-1H-indazol-5-yl)pyridin-3-yl)cyclopentanecarboxamide], the EC50 in experiment [1] was above 10 µM; in experiment [2], above 10 µM; in experiment [3], 9.51 µM; in experiment [4], above 10 µM. Besides, the inhibition at 10 µM in experiment [1] worked out at 34.3%; in experiment [2], 17.1%; in experiment [4] (read-out: percent inhibition at 10 μM), 0%.
As for `CN1CCN(c2nccc3[nH]c(-c4n[nH]c5ccc(-c6cncnc6)cc45)cc23)CC1` [Compound 251, 3-(4-(4-Methylpiperazin-1-yl)-1H-pyrrolo[3,2-c]pyridin-2-yl)-5-(pyrimidin-5-yl)-1H-indazole], the half-maximal effective concentration (EC50) in experiment [1] was above 10 µM; in experiment [2], above 10 µM; in experiment [3], 8.26 µM; in experiment [4], 9.7 µM. Also, the figures for the inhibition at 10 µM in experiment [1] and in experiment [2] were 20% and 20.2%, respectively.
Consider `CN1CCN(c2nccc3[nH]c(-c4n[nH]c5ccc(-c6ccccn6)cc45)cc23)CC1` [Compound 252, 3-(4-(4-Methylpiperazin-1-yl)-1H-pyrrolo[3,2-c]pyridin-2-yl)-5-(pyridin-2-yl)-1H-indazole], for which the EC50 is 4.69 µM in experiment [1], above 10 µM in experiment [2], 2.75 µM in experiment [3] and 1.46 µM in experiment [4]. In addition, in experiment [2], the inhibition at 10 µM is 18.8%.
On to `CCCC(=O)Nc1cncc(-c2ccc3[nH]nc(-c4cc5cnccc5[nH]4)c3c2)c1` [Compound 269, N-(5-(3-(1H-Pyrrolo[3,2-c]pyridin-2-yl)-1H-indazol-5-yl)pyridin-3-yl) butyramide], for which the EC50 in experiment [1] is 0.455 µM; in experiment [2], 0.105 µM; in experiment [3] it was 0.154 µM; in experiment [4], 0.149 µM.
The like results for `c1cncc(-c2ccc3[nH]nc(-c4cc5c(-c6ccsc6)nccc5[nH]4)c3c2)c1` [Compound 284, 5-(Pyridin-3-yl)-3-(4-(thiophen-3-yl)-1H-pyrrolo[3,2-c]pyridin-2-yl)-1H-indazole] were, in that order, 0.661 µM, 1.25 µM, 1.1 µM and 0.648 µM.
Regarding `c1ccc(-c2ccc3[nH]nc(-c4cc5c(-c6cccs6)nccc5[nH]4)c3c2)nc1` [Compound 364, 5-(Pyridin-2-yl)-3-(4-(thiophen-2-yl)-1H-pyrrolo[3,2-c]pyridin-2-yl)-1H-indazole], the EC50 was 1.9 µM in experiment [1], 2.22 µM in experiment [2], above 10 µM in experiment [3] and 1.77 µM in experiment [4]. Moreover, in experiment [3], the inhibition at 10 µM came to 44%.
In the case of `CC(C)CC(=O)Nc1cncc(-c2ccc3[nH]nc(-c4cc5c(-c6cc(F)cc(CNS(C)(=O)=O)c6)nccc5[nH]4)c3c2)c1` [Compound 478, N-(5-(3-(4-(3-Fluoro-5-(methylsulfonamidomethyl)phenyl)-1H-pyrrolo[3,2-c]pyridin-2-yl)-1H-indazol-5-yl)pyridin-3-yl)-3-methylbutanamide], the EC50 in experiment [1] amounted to 1.07 µM; in experiment [2], 0.581 µM; in experiment [3] it was 0.115 µM; in experiment [4], 2.37 µM.
On to `CS(=O)(=O)NCc1cc(F)cc(-c2nccc3[nH]c(-c4n[nH]c5ccc(-c6cncc(NC(=O)C7CC7)c6)cc45)cc23)c1` [Compound 496, N-(5-(3-(4-(3-Fluoro-5-(methylsulfonamidomethyl)phenyl)-1H-pyrrolo[3,2-c]pyridin-2-yl)-1H-indazol-5-yl)pyridin-3-yl)cyclopropanecarboxamide], for which the EC50 in experiment [1] is 0.93 µM; in experiment [2], 0.37 µM; in experiment [3] it was 0.137 µM; in experiment [4] it was 5.12 µM.
In the case of `CS(=O)(=O)NCc1cc(F)cc(-c2nccc3[nH]c(-c4n[nH]c5ccc(-c6cncc(NC(=O)C7CCC7)c6)cc45)cc23)c1` [Compound 497, N-(5-(3-(4-(3-Fluoro-5-(methylsulfonamidomethyl)phenyl)-1H-pyrrolo[3,2-c]pyridin-2-yl)-1H-indazol-5-yl)pyridin-3-yl)cyclobutanecarboxamide], the EC50 in experiment [1] came to 0.492 µM; in experiment [2] it was 0.188 µM; in experiment [3], 0.027 µM; in experiment [4], 0.599 µM.
For `CS(=O)(=O)NCc1cc(F)cc(-c2nccc3[nH]c(-c4n[nH]c5ccc(-c6cncc(NC(=O)C7CCCC7)c6)cc45)cc23)c1` [Compound 498, N-(5-(3-(4-(3-Fluoro-5-(methylsulfonamidomethyl)phenyl)-1H-pyrrolo[3,2-c]pyridin-2-yl)-1H-indazol-5-yl)pyridin-3-yl)cyclopentanecarboxamide] the same measures were 1.14 µM, 0.741 µM, 0.103 µM and 3.5 µM.
Turning to `CS(=O)(=O)NCc1cc(F)cc(-c2nccc3[nH]c(-c4n[nH]c5ccc(-c6ccccn6)cc45)cc23)c1` [Compound 504, N-(3-Fluoro-5-(2-(5-(pyridin-2-yl)-1H-indazol-3-yl)-1H-pyrrolo[3,2-c]pyridin-4-yl)benzyl)methanesulfonamide], the EC50 is 5.54 µM in experiment [1], 3.61 µM in experiment [2], above 10 µM in experiment [3] and 2.13 µM in experiment [4]. The inhibition at 10 µM in experiment [3] turned out to be 40.6%.
For `Fc1cccc(-c2nccc3[nH]c(-c4n[nH]c5ccc(C6CCNCC6)cc45)cc23)c1` [Compound 505, 3-(4-(3-Fluorophenyl)-1H-pyrrolo[3,2-c]pyridin-2-yl)-5-(piperidin-4-yl)-1H-indazole], the EC50 was determined as 3.84 µM in experiment [1], 3.59 µM in experiment [2], 0.723 µM in experiment [3] and 3.32 µM in experiment [4].
For the molecule `Fc1ccc(-c2nccc3[nH]c(-c4n[nH]c5ccc(C6=CCNCC6)cc45)cc23)cc1` [Compound 522, 3-(4-(4-Fluorophenyl)-1H-pyrrolo[3,2-c]pyridin-2-yl)-5-(1,2,3,6-tetrahydropyridin-4-yl)-1H-indazole], the concentration giving a half-maximal response (EC50) in experiment [1] was 2.17 µM; in experiment [2] it was 3.78 µM; in experiment [3], above 10 µM; in experiment [4], 1.43 µM. The inhibition at 10 µM in experiment [3] amounted to 4.1%.
Take `Fc1ccc(-c2nccc3[nH]c(-c4n[nH]c5ccc(-c6cn[nH]c6)cc45)cc23)cc1` [Compound 523, 3-(4-(4-Fluorophenyl)-1H-pyrrolo[3,2-c]pyridin-2-yl)-5-(1H-pyrazol-4-yl)-1H-indazole]: the EC50 in experiment [1] amounted to 0.837 µM; in experiment [2], 0.111 µM; in experiment [3], 0.092 µM; in experiment [4], 0.161 µM.
For `CN(C)CCOc1cncc(-c2ccc3[nH]nc(-c4cc5c(-c6ccc(F)cc6)nccc5[nH]4)c3c2)c1` [Compound 531, 2-((5-(3-(4-(4-fluorophenyl)-1H-pyrrolo[3,2-c]pyridin-2-yl)-1H-indazol-5-yl)pyridin-3-yl)oxy)-N,N-dimethylethan-1-amine] the same measures were 1.19 µM, 3.38 µM, 7.05 µM and 0.908 µM.
